# Data from ChEMBL document CHEMBL3525964 (Drug Metab Dispos, 2012).
# How the values were obtained:
# [1] = tested on: Plasma; assay: Drug level in human plasma treated with [14C}LY2452473 at 15 mg, po after 4 hrs administered as single dose by HPLC analysis relative to total radioactivity; format: ADME, organism-based; conditions: in vivo
# [2] = tested on: Plasma; assay: Drug level in human plasma treated with [14C}LY2452473 at 15 mg, po after 2 hrs administered as single dose by HPLC analysis; format: ADME, organism-based; conditions: in vivo
# [3] = tested on: Plasma; assay: Drug level in human plasma treated with [14C}LY2452473 at 15 mg, po after 4 hrs administered as single dose by HPLC analysis; format: ADME, organism-based; conditions: in vivo
# [4] = Drug level in feces of human treated with [14C}LY2452473 at 15 mg, po administered as single dose by LC-MS/MS method; format: ADME, organism-based; conditions: in vivo
# [5] = tested on: Plasma; assay: Drug level in human plasma treated with [14C}LY2452473 at 15 mg, po after 8 hrs administered as single dose by HPLC analysis; format: ADME, organism-based; conditions: in vivo
# [6] = tested on: Plasma; assay: Drug level in human plasma treated with [14C}LY2452473 at 15 mg, po after 48 hrs administered as single dose by HPLC analysis; format: ADME, organism-based; conditions: in vivo
# [7] = Drug level in urine of human treated with [14C}LY2452473 at 15 mg, po administered as single dose by LC-MS/MS method; format: ADME, organism-based; conditions: in vivo
# [8] = tested on: Plasma; assay: Drug level in plasma of human treated with [14C}LY2452473 at 15 mg, po administered as single dose by LC-MS/MS method; format: ADME, organism-based; conditions: in vivo
# [9] = tested on: Plasma; assay: Drug level in human plasma treated with [14C}LY2452473 at 15 mg, po after 1 hr administered as single dose by HPLC analysis; format: ADME, organism-based; conditions: in vivo
# [10] = tested on: Plasma; assay: Drug level in human plasma treated with [14C}LY2452473 at 15 mg, po after 24 hrs administered as single dose by HPLC analysis; format: ADME, organism-based; conditions: in vivo
# [11] = Total drug excretion in human treated with [14C}LY2452473 at 15 mg, po administered as single dose by HPLC analysis; format: ADME, organism-based; conditions: in vivo, read-out: Drug excretion
# [12] = Drug excretion in urine of human treated with [14C}LY2452473 at 15 mg, po administered as single dose by HPLC analysis; format: ADME, organism-based; conditions: read-out: Drug excretion
# [13] = Drug metabolism in human urine assessed as isopropyl N-[(2S,3S)-7-cyano-3-hydroxy-4-(2-pyridylmethyl)-2,3-dihydro-1H-cyclopenta[b]indol-2-yl]carbamate formation at 15 mg, po administered as single dose by LC-MS/MS method; format: ADME, organism-based; conditions: in vivo
# [14] = Drug metabolism in human feces assessed as isopropyl(2S)-7-cyano-3a,8b-dihydroxy-4-(pyridin-2-ylmethyl)-1,2,3,3a,4,8b-hexahydrocyclopenta[b]indol-2-ylcarbamate formation at 15 mg, po administered as single dose by LC-MS/MS method; format: ADME, organism-based; conditions: in vivo
# [15] = tested on: Plasma; assay: Drug level in human plasma at 15 mg, po after 48 hrs administered as single dose by HPLC analysis; format: ADME, organism-based; conditions: in vivo, pooled result: one value given for 5 cell lines, strains, targets or settings
# [16] = tested on: Plasma; assay: Drug metabolism in human plasma assessed as [(1R)-2-hydroxy-1-methyl-ethyl]N-[(2S)-7-cyano-4-(2-pyridylmethyl)-2,3-dihydro-1H-cyclopenta[b]indol-2-yl]carbamate formation at 15 mg, po administered as single dose by LC-MS/MS method; format: ADME, organism-based; conditions: in vivo
# [17] = Drug recovery in human feces at 15 mg, po administered as single dose after 0 to 312 hrs by liquid scintillation counting method; format: ADME, organism-based; conditions: in vivo
# [18] = tested on: Plasma; assay: Drug metabolism in human plasma assessed as N-[(2S)-7-cyano-4-(2-pyridylmethyl)-2,3-dihydro-1H-cyclopenta[b]indol-2-yl]acetamide formation at 15 mg, po administered as single dose by LC-MS/MS method; format: ADME, organism-based; conditions: in vivo
# [19] = Drug metabolism in human urine assessed as (2S)-2-amino-4-(2-pyridylmethyl)-2,3-dihydro-1H-cyclopenta[b]indole-7-carbonitrile formation at 15 mg, po administered as single dose by LC-MS/MS method; format: ADME, organism-based; conditions: in vivo
# [20] = Drug metabolism in human feces assessed as isopropyl N-[(2S,3S)-7-cyano-3-hydroxy-4-(2-pyridylmethyl)-2,3-dihydro-1H-cyclopenta[b]indol-2-yl]carbamate formation at 15 mg, po administered as single dose by LC-MS/MS method; format: ADME, organism-based; conditions: in vivo
# [21] = tested on: Homo sapiens; assay: AUC (0 to infinity) in human assessed as total radioactivity at 15 mg, po administered as single dose by liquid scintillation counting method; format: ADME, organism-based, Plasma; parameters: dose 15 mg, route oral, time infinity; conditions: in vivo
# [22] = tested on: Homo sapiens; assay: Elimination half life in human assessed as total radioactivity at 15 mg, po administered as single dose by liquid scintillation counting method; format: ADME, organism-based; conditions: in vivo
# [23] = Drug metabolism in human feces assessed as N-[(2S)-7-cyano-4-(2-pyridylmethyl)-2,3-dihydro-1H-cyclopenta[b]indol-2-yl]acetamide formation at 15 mg, po administered as single dose by LC-MS/MS method; format: ADME, organism-based; conditions: in vivo
# [24] = tested on: Homo sapiens; assay: Drug recovery in human at 15 mg, po administered as single dose after 0 to 312 hrs by liquid scintillation counting method; format: ADME, organism-based; conditions: in vivo
# [25] = tested on: Homo sapiens; assay: AUC (0 to time) in human assessed as total radioactivity at 15 mg, po administered as single dose by liquid scintillation counting method; format: ADME, organism-based, Plasma; conditions: in vivo
# [26] = tested on: Plasma; assay: Drug level in human plasma at 15 mg, po after 24 hrs administered as single dose by HPLC analysis; format: ADME, organism-based; conditions: in vivo
# [27] = Drug metabolism in human urine assessed as LY2452473 formation at 15 mg, po administered as single dose by LC-MS/MS method; format: ADME, organism-based; conditions: in vivo
# [28] = tested on: Plasma; assay: Drug metabolism in human plasma assessed as LY2452473 formation at 15 mg, po administered as single dose by LC-MS/MS method; format: ADME, organism-based; conditions: in vivo
# [29] = tested on: Homo sapiens; assay: Tmax in human assessed as total radioactivity at 15 mg, po administered as single dose by liquid scintillation counting method; format: ADME, organism-based; conditions: in vivo
# [30] = Drug metabolism in human urine assessed as [(1R)-2-hydroxy-1-methyl-ethyl]N-[(2S)-7-cyano-4-(2-pyridylmethyl)-2,3-dihydro-1H-cyclopenta[b]indol-2-yl]carbamate formation at 15 mg, po administered as single dose by LC-MS/MS method; format: ADME, organism-based; conditions: in vivo
# [31] = Drug metabolism in human urine assessed as N-[(2S)-7-cyano-4-(2-pyridylmethyl)-2,3-dihydro-1H-cyclopenta[b]indol-2-yl]acetamide formation at 15 mg, po administered as single dose by LC-MS/MS method; format: ADME, organism-based; conditions: in vivo
# [32] = Drug metabolism in human feces assessed as LY2452473 formation at 15 mg, po administered as single dose by LC-MS/MS method; format: ADME, organism-based; conditions: in vivo
# [33] = Drug metabolism in human urine assessed as isopropyl(2S)-7-cyano-3a,8b-dihydroxy-4-(pyridin-2-ylmethyl)-1,2,3,3a,4,8b-hexahydrocyclopenta[b]indol-2-ylcarbamate formation at 15 mg, po administered as single dose by LC-MS/MS method; format: ADME, organism-based; conditions: in vivo
# [34] = tested on: Plasma; assay: Drug metabolism in human plasma assessed as isopropyl N-[(2S,3S)-7-cyano-3-hydroxy-4-(2-pyridylmethyl)-2,3-dihydro-1H-cyclopenta[b]indol-2-yl]carbamate formation at 15 mg, po administered as single dose by LC-MS/MS method; format: ADME, organism-based; conditions: in vivo
# [35] = tested on: Plasma; assay: Drug metabolism in human plasma assessed as isopropyl(2S)-7-cyano-3a,8b-dihydroxy-4-(pyridin-2-ylmethyl)-1,2,3,3a,4,8b-hexahydrocyclopenta[b]indol-2-ylcarbamate formation at 15 mg, po administered as single dose by LC-MS/MS method; format: ADME, organism-based; conditions: in vivo
# [36] = tested on: Homo sapiens; assay: Tlast in human assessed as total radioactivity at 15 mg, po administered as single dose by liquid scintillation counting method; format: ADME, organism-based; conditions: in vivo
# [37] = Drug metabolism in human feces assessed as [(1R)-2-hydroxy-1-methyl-ethyl]N-[(2S)-7-cyano-4-(2-pyridylmethyl)-2,3-dihydro-1H-cyclopenta[b]indol-2-yl]carbamate formation at 15 mg, po administered as single dose by LC-MS/MS method; format: ADME, organism-based; conditions: in vivo
# [38] = tested on: Plasma; assay: Drug metabolism in human plasma assessed as (2S)-2-amino-4-(2-pyridylmethyl)-2,3-dihydro-1H-cyclopenta[b]indole-7-carbonitrile formation at 15 mg, po administered as single dose by LC-MS/MS method; format: ADME, organism-based; conditions: in vivo
# [39] = Drug metabolism in human feces assessed as (2S)-2-amino-4-(2-pyridylmethyl)-2,3-dihydro-1H-cyclopenta[b]indole-7-carbonitrile formation at 15 mg, po administered as single dose by LC-MS/MS method; format: ADME, organism-based; conditions: in vivo
# [40] = Drug recovery in human urine at 15 mg, po administered as single dose after 0 to 312 hrs by liquid scintillation counting method; format: ADME, organism-based; conditions: in vivo
smiles,measurement,setting,value
C[C@H](CO)OC(=O)N[C@H]1Cc2c(n(Cc3ccccn3)c3ccc(C#N)cc23)C1,Drug uptake,[1],2.3%
same,Drug uptake,[2],0.89%
same,Drug uptake,[3],2.2%
same,Drug metabolism,[4],metabolite_detected
same,Drug uptake,[5],6.94%
same,Drug uptake,[6],0%
same,Drug metabolism,[7],metabolite_detected
same,Drug metabolism,[8],metabolite_detected
same,Drug uptake,[9],0%
same,Drug uptake,[10],0%
N#Cc1ccc2c(c1)c1c(n2Cc2ccccn2)C[C@@H](N)C1,dose excreted,[11],3.39%
same,dose excreted,[12],3.39%
same,Drug metabolism,[4],metabolite_detected
same,Drug metabolism,[7],metabolite_detected
same,Drug metabolism,[8],metabolite_detected
CC(C)OC(=O)N[C@H]1CC2(O)c3cc(C#N)ccc3N(Cc3ccccn3)C2(O)C1 (some centres not stated),Drug metabolism,[4],metabolite_detected
same,Drug metabolism,[7],metabolite_detected
same,Drug metabolism,[8],metabolite_detected
C[C@@H](CO)OC(=O)N[C@H]1Cc2c(n(Cc3ccccn3)c3ccc(C#N)cc23)C1,Drug uptake,[2],0%
same,Drug uptake,[3],0.97%
same,Drug uptake,[5],0%
same,Drug uptake,[6],0%
same,Drug uptake,[9],0%
same,Drug uptake,[10],0%
CC(=O)N[C@H]1Cc2c(n(Cc3ccccn3)c3ccc(C#N)cc23)C1,Drug uptake,[1],20.6%
same,Drug uptake,[2],0%
same,Drug uptake,[3],1.74%
same,Drug metabolism,[4],metabolite_detected
same,Drug uptake,[5],10.48%
same,Drug uptake,[6],38.68%
same,Drug metabolism,[7],metabolite_detected
same,Drug metabolism,[8],metabolite_detected
same,Drug uptake,[9],0%
same,Drug uptake,[10],28.48%
CC(C)OC(=O)N[C@H]1Cc2c(n(Cc3ccccn3)c3ccc(C#N)cc23)[C@H]1O,Drug uptake,[1],34.7%
same,Drug uptake,[2],22.58%
same,Drug uptake,[3],24.24%
same,Drug metabolism,[4],metabolite_detected
same,Drug uptake,[5],36.62%
same,Drug uptake,[6],30.05%
same,Drug metabolism,[7],metabolite_detected
same,Drug metabolism,[8],metabolite_detected
same,Drug uptake,[9],21.9%
same,Drug uptake,[10],37.11%
CC(C)OC(=O)N[C@H]1Cc2c(n(Cc3ccccn3)c3ccc([14C]#N)cc23)C1,Drug metabolism,[13],metabolite_detected
same,Drug metabolism,[14],metabolite_detected
same,Drug uptake,[15],96.4%
same,Drug metabolism,[16],metabolite_detected
same,Drug recovery,[17],46.6%
same,Drug metabolism,[18],metabolite_detected
same,Drug metabolism,[19],metabolite_detected
same,Drug metabolism,[20],metabolite_detected
same,AUC,[21],7750 ng·h/mL
same,beta t1/2,[22],51 h
same,Drug metabolism,[23],metabolite_detected
same,Drug recovery,[24],94.5%
same,AUCt,[25],7210 ng·h/mL
same,Drug uptake,[26],94.41%
same,Drug metabolism,[27],metabolite_detected
same,Drug metabolism,[28],metabolite_detected
same,Tmax,[29],3 h
same,Drug metabolism,[30],metabolite_detected
same,Drug metabolism,[31],metabolite_detected
same,Drug metabolism,[32],metabolite_detected
same,Drug metabolism,[33],metabolite_detected
same,Drug metabolism,[34],metabolite_detected
same,Drug metabolism,[35],metabolite_detected
same,Tlast,[36],204 h
same,Drug metabolism,[37],metabolite_detected
same,Drug metabolism,[38],metabolite_detected
same,Drug metabolism,[39],metabolite_detected
same,Drug recovery,[40],47.9%
